The values below come from ChEMBL document CHEMBL4808148, “HDAC6 screening dataset using tau-based substrate in an enzymatic assay yields selective inhibitors and activators” (2021).

Molecules are shown by their SMILES.

In the experiment the target is T1, Protein deacetylase HDAC6 (Homo sapiens) (UniProt Q9UBN7).
T1 sequence (whole entry): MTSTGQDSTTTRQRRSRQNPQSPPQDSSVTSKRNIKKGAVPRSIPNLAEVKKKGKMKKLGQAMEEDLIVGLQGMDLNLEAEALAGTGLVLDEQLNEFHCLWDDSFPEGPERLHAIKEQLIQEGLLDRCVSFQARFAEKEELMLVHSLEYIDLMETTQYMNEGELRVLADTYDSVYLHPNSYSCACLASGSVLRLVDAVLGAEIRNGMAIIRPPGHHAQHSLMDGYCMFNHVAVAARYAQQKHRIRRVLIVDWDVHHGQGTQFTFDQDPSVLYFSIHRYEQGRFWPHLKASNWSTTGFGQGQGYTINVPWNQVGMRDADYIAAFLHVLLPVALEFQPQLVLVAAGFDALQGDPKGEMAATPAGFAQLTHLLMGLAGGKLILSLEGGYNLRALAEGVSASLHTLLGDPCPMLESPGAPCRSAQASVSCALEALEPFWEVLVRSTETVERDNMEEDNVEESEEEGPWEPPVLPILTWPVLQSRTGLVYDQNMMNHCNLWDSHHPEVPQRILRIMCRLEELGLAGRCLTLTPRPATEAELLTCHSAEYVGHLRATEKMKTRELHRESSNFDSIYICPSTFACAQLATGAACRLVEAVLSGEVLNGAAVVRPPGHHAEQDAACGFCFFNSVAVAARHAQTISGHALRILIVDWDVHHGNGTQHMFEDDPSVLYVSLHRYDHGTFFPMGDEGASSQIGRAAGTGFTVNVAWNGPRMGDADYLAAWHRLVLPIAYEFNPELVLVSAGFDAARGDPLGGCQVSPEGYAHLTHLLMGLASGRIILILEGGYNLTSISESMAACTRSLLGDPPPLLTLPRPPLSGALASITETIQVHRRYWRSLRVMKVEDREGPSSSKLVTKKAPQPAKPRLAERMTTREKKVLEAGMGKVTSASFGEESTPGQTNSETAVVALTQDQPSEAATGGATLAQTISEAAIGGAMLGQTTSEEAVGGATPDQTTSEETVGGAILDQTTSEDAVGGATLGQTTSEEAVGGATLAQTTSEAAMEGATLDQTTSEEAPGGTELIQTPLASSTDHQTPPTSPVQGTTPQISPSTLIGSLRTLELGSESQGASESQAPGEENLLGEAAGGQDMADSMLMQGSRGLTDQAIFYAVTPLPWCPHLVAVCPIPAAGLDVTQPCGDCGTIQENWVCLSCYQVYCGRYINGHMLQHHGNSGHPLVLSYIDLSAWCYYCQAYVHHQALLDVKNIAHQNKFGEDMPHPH
The following applies: at 10 µM.
For `O=C(N/N=C/c1ccccc1O)c1ccccc1O`, the inhibition was found to be 107%.

For the molecule `CCC(=O)NO`, the inhibition amounted to 37.4%.

As to `CCCCOC(=O)c1ccc(O)cc1`, the inhibition turned out to be 81.3%.

Consider `CC(C)COC(=O)c1ccc(N)cc1`, for which the inhibition came out at 82.1%.

Regarding `CCC(CC)(CC(=O)Nc1cccc(/C=C/c2nc(C3CCC3)cs2)c1)C(=O)O`, the inhibition stood at 36.2%.

In the case of `OCCOCCN1CCN(C(c2ccccc2)c2ccc(Cl)cc2)CC1` (centres undefined), the inhibition is -6.68%.

Take `O=C1c2ccccc2C(=O)C1c1ccc(Br)cc1`: the inhibition worked out at 38.3%.

As for `COc1ccc(-c2coc3cc(O)cc(O)c3c2=O)cc1`, the inhibition came out at 101%.

Consider `O=c1c(O)c(-c2ccc(O)c(O)c2)oc2cc(O)cc(O)c12`, for which the inhibition amounted to 108%.

Regarding `O=C(/C=C/c1ccc(O)cc1)c1ccc(O)cc1O`, the inhibition amounted to 97.8%.

Turning to `Cc1c(CN(C)C(=O)/C=C/c2cnc3c(c2)CCC(=O)N3)oc2ccccc12`, the inhibition is 0.5%.

For `c1ccc(CCNc2nc(-c3ccccc3)cs2)cc1`, the inhibition worked out at 96.5%.

Consider `Nc1ncnc(Nc2ccc(Cl)cc2)n1`, for which the inhibition came to 59.8%.

Consider `Nc1nc(N)c(N=O)c(OCC2CCCCC2)n1`, for which the inhibition was 83.5%.

In the case of `CC(C)[C@H](C(=O)Nc1ccc(C(=O)NO)cc1)c1ccccc1`, the inhibition was determined as 101%.

In the case of `CN(C)CC/C=C1\c2ccccc2Sc2ccc(Cl)cc21`, the inhibition turned out to be 94.5%.

As to `CCOc1ccc(S(=O)(=O)O)c2cccnc12`, the inhibition is -1.18%.

As for `Nc1cc2c3ccccc3ccc2c2ccccc12`, the inhibition is 24.2%.

For `Cc1cc(C)c(/C=C2\C(=O)Nc3ccccc32)[nH]1`, the inhibition turned out to be 36.4%.

For `CN1CCCN=C1/C=C/c1cccc(O)c1`, the inhibition turned out to be 53.6%.

As for `O=C(CCCCCN1C(=O)c2cccc3cccc(c23)C1=O)NO`, the inhibition is 104%.

Regarding `N#Cc1c(O)c2c(-c3ccc(-c4ccccc4O)cc3)csc2[nH]c1=O`, the inhibition amounted to 57.7%.

On to `O=C(NC1CC1)c1cc(-c2cccs2)on1`, for which the inhibition amounted to 70.5%.

As to `CC1(C)CNc2cc(NC(=O)c3cccnc3NCc3ccncc3)ccc21`, the inhibition was determined as 78.2%.

With `C/C(=N\NC(=N)N)c1cc(NC(=O)CCCCCCCCC(=O)Nc2cc(/C(C)=N/NC(=N)N)cc(/C(C)=N/NC(=N)N)c2)cc(/C(C)=N/NC(=N)N)c1`, the inhibition was found to be 57.5%.

Turning to `O=C(/C=C/c1ccc2c(c1)OCO2)N1CCCCC1`, the inhibition turned out to be 89.8%.

As to `O=C1C(Cl)=C(N2CCOCC2)C(=O)N1c1ccc(Cl)c(Cl)c1`, the inhibition is 83.8%.

Turning to `CN1CCCN=C1/C=C/c1cccs1`, the inhibition was determined as 42%.

`COc1ccc(-c2nc(N3CCOCC3)c3sc(CN(C)c4ncc(C(=O)NO)cn4)cc3n2)cn1`: the inhibition was 104%.

For `NCCNc1ccc(NCCN)c2c1C(=O)c1ccncc1C2=O`, the inhibition is 108%.

As to `CC(=O)Oc1ccccc1C(=O)Nc1ncc([N+](=O)[O-])s1`, the inhibition turned out to be 110%.

As for `O=C(NCc1ccc2c(c1)OCO2)c1c(Cl)cccc1Cl`, the inhibition turned out to be 17.4%.

In the case of `FC(F)(F)c1cc(NC(=S)Nc2ccc(Br)cc2-c2nnn[nH]2)cc(C(F)(F)F)c1`, the inhibition was 31.7%.

For `Cc1ccc(NC(=O)c2ccc(CN3CCN(C)CC3)cc2)cc1Nc1nc(-c2cccnc2)cs1`, the inhibition is 22.6%.

Take `O=C1Cc2c([nH]c3ccc(Br)cc23)-c2ccccc2N1`: the inhibition came to 96.6%.

For `Cc1cc(O)c2c(c1)C(=O)c1cccc(O)c1C2=O`, the inhibition was determined as 65.1%.

As for `N[C@@H]1CCCN(c2c(/C=C3\SC(=O)NC3=O)cccc2-c2ccccc2)C1`, the inhibition came to 14.4%.

For the molecule `CCOc1cc(/C=C2/C(=O)N(c3ccccc3)N=C2C)cc(Cl)c1OCC(=O)OC`, the inhibition came to 16.6%.

Consider `Cc1[nH]cnc1-c1ccc(Cl)cc1`, for which the inhibition stood at 94.8%.

Regarding `c1cc(Nc2cc(C3CC3)n[nH]2)nc(Nc2ccc3[nH]cnc3c2)n1`, the inhibition stood at 66.6%.

`O=c1c2ccccc2oc2ccccc12`: the inhibition worked out at 61.8%.

For the molecule `Cc1cn([C@H]2C=C[C@@H](CO)O2)c(=O)[nH]c1=O`, the inhibition came out at 19.5%.

For the molecule `O=C(Nc1ccc2[nH]ccc2c1)c1ccccc1`, the inhibition was found to be 86.3%.

For `Cc1cc(NCCO)nc(-c2ccc(Br)cc2)n1`, the inhibition worked out at 64.4%.

Take `CC(C)(C)c1[nH]cnc1/C=c1\[nH]c(=O)/c(=C/c2ccccc2)[nH]c1=O`: the inhibition was determined as 80.7%.

With `NS(=O)(=O)c1nn2cc(-c3ccccc3)nc2s1`, the inhibition is 81.9%.

`COc1ccc(-c2nc3cc(C4=NNC(=O)CC4C)ccc3[nH]2)cc1` (centres undefined): the inhibition came to 97.8%.

For `Cc1cc(C)c(S(=O)(=O)Nc2cccc(C(F)(F)F)c2)c(C)c1`, the inhibition is -5.7%.

For `N=C(NCCC[C@H](N)C(=O)O)N[N+](=O)[O-]`, the inhibition turned out to be 0.71%.

As to `CC(C)c1ccc2oc3nc(N)c(C(=O)O)cc3c(=O)c2c1`, the inhibition was found to be 108%.

For the molecule `COC(=O)Nc1nc2cc(SC(C)C)ccc2[nH]1`, the inhibition was determined as 87.7%.

In the case of `C=CC(C)(C)c1cc(/C=C/C(=O)c2ccc(O)cc2)c(OC)cc1O`, the inhibition was 52.1%.

Regarding `COc1cc(OC)cc(-c2ccc3c(-c4ccc(F)cc4)n[nH]c3n2)c1`, the inhibition came out at 47.1%.

`CN1CCc2c(c3ccccc3n2Cc2ccc(C(=O)NO)cc2)C1`: the inhibition was found to be 99.5%.

For `O=C1NC(=O)/C(=C/c2ccc(-c3ccc(F)cc3O)o2)S1`, the inhibition is 94.9%.

For the molecule `O=C1Cc2c([nH]c3ccc(Br)cc23)-c2ncccc2N1`, the inhibition was 92.8%.

Turning to `O=C(O)Cc1ccc2c(c1)C(=O)c1ccccc1CO2`, the inhibition was determined as 64.3%.

As for `Cn1ccc2cc(NC(=O)Nc3cccnc3)ccc21`, the inhibition came out at 50.6%.

With `COc1ccc(Nc2ccn(-c3ccccc3)n2)cc1`, the inhibition stood at 111%.

Turning to `CN1[C@@H]2C[C@@H](O)C[C@H]1[C@@H]1O[C@@H]12`, the inhibition was found to be 67.9%.

As for `CCCn1c(=O)c2[nH]c(-c3cnn(Cc4cccc(C(F)(F)F)c4)c3)nc2n(CC)c1=O`, the inhibition was 18.7%.

`COc1cc2nc(C3CC3)nc(N3CCN(c4ccccc4OC)CC3)c2cc1OC`: the inhibition is 56.3%.

Take `CC(C)OC(=O)Nc1cccc(Cl)c1`: the inhibition was 73%.

For the molecule `c1ccc2c(c1)Nc1ccccc1S2`, the inhibition is 71.8%.

On to `O=C(CCCCCCNC(=O)c1cnc(N(c2ccccc2)c2ccccc2)nc1)NO`, for which the inhibition was 105%.

As for `N#C/C(=C\c1ccc(O)c(O)c1)C(=O)NCCCc1ccccc1`, the inhibition amounted to 33.8%.

With `O=C(OCC(O)CO)c1ccccc1Nc1ccnc2cc(Cl)ccc12` (centres undefined), the inhibition was determined as 83.6%.

As for `COc1ccc(-c2cc(=O)c3c(O)cc(O)cc3o2)cc1O`, the inhibition worked out at 102%.

Regarding `COc1ccccc1OCC(O)COC(N)=O` (centres undefined), the inhibition came out at 8.29%.

Consider `COc1ccc(C2C(=O)c3ccccc3C2=O)cc1`, for which the inhibition worked out at 99.8%.

As for `C/N=c1/nc(-c2ccccc2)n(-c2ccccc2)s1`, the inhibition worked out at 81.7%.

In the case of `O=C(Nc1ccc([N+](=O)[O-])cc1Cl)c1cc(Cl)ccc1O`, the inhibition was found to be 42.3%.

With `O=C1OC2(c3cc(I)c(O)c(I)c3Oc3c2cc(I)c(O)c3I)c2c(Cl)c(Cl)c(Cl)c(Cl)c21`, the inhibition turned out to be 68.7%.

Consider `Cc1c(-c2ccc(O)cc2)n(Cc2ccc(OCCN3CCCCCC3)cc2)c2ccc(O)cc12`, for which the inhibition worked out at 97.7%.

As a reminder, the inhibition is the drop in the measured response relative to a control, in per cent.
